# Experiment: HCV replicon assay (luciferase) in ET (Huh-lucubineo-ET) cell line
# Format: cell-based
# Conditions: Hepatitis C virus; tested at 10 μM; inhibition of replication relative to no compound control; ET replicon cells, luciferase 48-72 hours; read-out: % inhition at 10 μM
row,SMILES,inhibition at 10 µM [%]
1,"CCOc1ccc(-c2cc(Cn3cc4nc(-c5cccc(F)c5F)nc-4cn3)on2)cc1 [Compound 220, 2-(2,3-Difluoro-phenyl)-5-[3-(4-ethoxy-phenyl)-isoxazol-5-ylmethyl]-5H-imidazo[4,5-d]pyridazine]",99.7
2,"COc1ccc(-c2cc(Cn3cc4nc(-c5cccc(F)c5F)nc-4cn3)on2)cc1 [Compound 221, 2-(2,3-Difluoro-phenyl)-5-[3-(4-methoxy-phenyl)-isoxazol-5-ylmethyl]-5H-imidazo[4,5-d]pyridazine]",98.9
3,"CCCCOc1ccc(-c2cc(Cn3cc4nc(-c5cccc(F)c5F)nc-4cn3)on2)cc1 [Compound 222, 5-[3-(4-Butoxy-phenyl)-isoxazol-5-ylmethyl]-2-(2,3-difluoro-phenyl)-5H-imidazo[4,5-d]pyridazine]",98.2
4,"CC(c1cc(-c2ccc(C(F)(F)F)cc2C(F)(F)F)no1)n1cc2nc(-c3cccc(F)c3F)nc-2cn1 (stereo not drawn) [Compound 226, 5-{1-[3-(2,4-Bis-trifluoromethyl-phenyl)-isoxazol-5-yl]-ethyl}-2-(2,3-difluoro-phenyl)-5H-imidazo[4,5-d]pyridazine]",99.7
5,"CC(C)(c1cc(-c2ccc(C(F)(F)F)cc2C(F)(F)F)no1)n1cc2nc(-c3cccc(F)c3F)nc-2cn1 [Compound 227, 5-{1-[3-(2,4-Bis-trifluoromethyl-phenyl)-isoxazol-5-yl]-1-methyl-ethyl}-2-(2,3-difluoro-phenyl)-5H-imidazo[4,5-d]pyridazine]",97.9
6,"COc1ccc(-c2noc(Cn3cc4nc(-c5cccc(F)c5F)nc-4cn3)n2)cc1 [Compound 228, 2-(2,3-Difluoro-phenyl)-5-[3-(4-methoxy-phenyl)-[1,2,4]oxadiazol-5-ylmethyl]-5H-imidazo[4,5-d]pyridazine]",40.8
7,"Fc1cccc(-c2nc3cnn(Cc4noc(-c5ccc(C(F)(F)F)cc5)n4)cc-3n2)c1F [Compound 230, 2-(2,3-Difluoro-phenyl)-5-[5-(4-trifluoromethyl-phenyl)-[1,2,4]oxadiazol-3-ylmethyl]-5H-imidazo[4,5-d]pyridazine]",35.8
8,"FC(F)(F)c1ccc(-c2cc(Cn3cc4nc(-c5ccccn5)nc-4cn3)on2)c(C(F)(F)F)c1 [Compound 231, 5-[3-(2,4-Bis-trifluoromethyl-phenyl)-isoxazol-5-ylmethyl]-2-pyridin-2-yl-5H-imidazo[4,5-d]pyridazine]",42
9,"Nc1nn(Cc2cc(-c3ccc(C(F)(F)F)cc3C(F)(F)F)no2)cc2nc(-c3cccc(F)c3F)nc1-2 [Compound 233, 6-[3-(2,4-Bis-trifluoromethyl-phenyl)-isoxazol-5-ylmethyl]-2-(2,3-difluoro-phenyl)-6H-imidazo[4,5-d]pyridazin-4-ylamine]",96.8
10,"CCCOc1ccc(-c2cc(Cn3cc4nc(-c5cccc(F)c5F)nc-4c(N)n3)on2)cc1 [Compound 235, 2-(2,3-Difluoro-phenyl)-6-[3-(4-propoxy-phenyl)-isoxazol-5-ylmethyl]-6H-imidazo[4,5-d]pyridazin-4-ylamine]",56
11,"Nc1nn(Cc2cc(-c3ccc(C(F)(F)F)cc3F)no2)cc2nc(-c3cccc(F)c3F)nc1-2 [Compound 236, 2-(2,3-Difluoro-phenyl)-6-[3-(2-fluoro-4-trifluoromethyl-phenyl)-isoxazol-5-ylmethyl]-6H-imidazo[4,5-d]pyridazin-4-ylamine]",76.8
12,"Nc1nn(Cc2cc(-c3ccc(C(F)(F)F)cc3C(F)(F)F)no2)c(N)c2nc(-c3cccc(F)c3F)nc1-2 [Compound 237, 5-[3-(2,4-Bis-trifluoromethyl-phenyl)-isoxazol-5-ylmethyl]-2-(2,3-difluoro-phenyl)-5H-imidazo[4,5-d]pyridazine-4,7-diamine]",1.73
13,"Fc1ccccc1-c1nc2cnn(Cc3cc(-c4ccc(Cl)cc4)on3)cc-2n1 [Compound 239, 5-[5-(4-Chloro-phenyl)-isoxazol-3-ylmethyl]-2-(2-fluoro-phenyl)-5H-imidazo[4,5-d]pyridazine]",95.3
14,"COc1ccc(-c2nc(Cn3cc4nc(-c5ccccc5F)nc-4cn3)no2)cc1 [Compound 240, 2-(2-Fluoro-phenyl)-5-[5-(4-methoxy-phenyl)-[1,2,4]oxadiazol-3-ylmethyl]-5H-imidazo[4,5-d]pyridazine]",16.4
15,"Fc1cccc(-c2nc3cnn(Cc4cc(-c5ccc(C(F)(F)F)cc5)on4)cc-3n2)c1F [Compound 241, 2-(2,3-Difluoro-phenyl)-5-[5-(4-trifluoromethyl-phenyl)-isoxazol-3-ylmethyl]-5H-imidazo[4,5-d]pyridazine]",99.7
16,"Fc1cccc(-c2nc3cnn(Cc4cc(-c5ccc(OC(F)(F)F)cc5)on4)cc-3n2)c1F [Compound 242, 2-(2,3-Difluoro-phenyl)-5-[5-(4-trifluoromethoxy-phenyl)-isoxazol-3-ylmethyl]-5H-imidazo[4,5-d]pyridazine]",97
17,"CCCOc1ccc(-c2cc(Cn3cc4nc(-c5cccc(F)c5F)nc-4cn3)no2)cc1 [Compound 243, 2-(2,3-Difluoro-phenyl)-5-[5-(4-propoxy-phenyl)-isoxazol-3-ylmethyl]-5H-imidazo[4,5-d]pyridazine]",99.4
18,"Fc1cccc(-c2nc3ccn(Cc4cc(-c5ccc(C(F)(F)F)cc5C(F)(F)F)no4)nc-3n2)c1F [Compound 245, 2-[3-(2,4-Bis-trifluoromethyl-phenyl)-isoxazol-5-ylmethyl]-6-(2,3-difluoro-phenyl)-2H-imidazo[4,5-c]pyridazine]",72.8
19,"Fc1cccc(-c2nc3ccn(Cc4cc(-c5ccc(C(F)(F)F)cc5)no4)nc-3n2)c1F [Compound 246, 6-(2,3-Difluoro-phenyl)-2-[3-(4-trifluoromethyl-phenyl)-isoxazol-5-ylmethyl]-2H-imidazo[4,5-c]pyridazine]",62.1
20,"Fc1cc(C(F)(F)F)ccc1-c1cc(Cn2ccc3nc(-c4cccc(F)c4F)nc-3n2)on1 [Compound 247, 6-(2,3-Difluoro-phenyl)-2-[3-(2-fluoro-4-trifluoromethyl-phenyl)-isoxazol-5-ylmethyl]-2H-imidazo[4,5-c]pyridazine]",80
21,"FC(F)(F)c1ccc(-c2cc(Cn3cc4nc(Nc5ccccc5)nc-4cn3)on2)c(C(F)(F)F)c1 [Compound 248, {5-[3-(2,4-Bis-trifluoromethyl-phenyl)-isoxazol-5-ylmethyl]-5H-imidazo[4,5-d]pyridazin-2-yl}-phenyl-amine]",15.5
22,"FC(F)(F)c1ccc(-c2cc(Cn3cc4nc(NCc5ccccc5)nc-4cn3)on2)c(C(F)(F)F)c1 [Compound 251, Benzyl-{5-[3-(2,4-bis-trifluoromethyl-phenyl)-isoxazol-5-ylmethyl]-5H-imidazo[4,5-d]pyridazin-2-yl}-amine]",97.7
23,"Fc1cccc(CNc2nc3cnn(Cc4cc(-c5ccc(C(F)(F)F)cc5C(F)(F)F)no4)cc-3n2)c1F [Compound 255, {5-[3-(2,4-Bis-trifluoromethyl-phenyl)-isoxazol-5-ylmethyl]-5H-imidazo[4,5-d]pyridazin-2-yl}-(2,3-difluoro-benzyl)-amine]",4.67
24,"FC(F)(F)c1ccc(-c2cc(Cn3cc4nc(NCCc5ccccc5)nc-4cn3)on2)c(C(F)(F)F)c1 [Compound 256, {5-[3-(2,4-Bis-trifluoromethyl-phenyl)-isoxazol-5-ylmethyl]-5H-imidazo[4,5-d]pyridazin-2-yl}-phenethyl-amine]",9.34

# From patent publication US20090197880A1 (Genelabs Technologies, Inc., priority 2007, published 2009)
